Data published in US20240018198A1, “MU-DIGUETOXIN-DC1A VARIANT POLYPEPTIDES FOR PEST CONTROL” (Vestaron Corporation, priority 2020, published 2024).
linker = not defined here; ERSP = not defined here

Columns and labels:
[1] = test system: Corn earworm (Helicoverpa zea); test: Screen for mutants improving CEW activity (injection of concentrated supernatants); assay type: in vivo
Experimental: Mutations of Dc1a were made to screen for recovery of CEW activity. Here, mutants were synthesized and cloned according the methods described above. […] Supernatants were combined and concentrated 10× using centrifugal filtration cassettes (Pall) with a 3000 Da molecular weight cutoff. Concentrates were then injected into Corn earworm (Helicoverpa zea).
Corn earworm (CEW) larvae were injected in their fourth instar. Eggs of H zea were purchased (Benzon Research, 7 Kuhn Dr, Carlisle, PA, 17015) and reared to fourth instar on General Purpose Lepidoptera Diet (Frontier Agricultural Science, Newark, DE). Prior to injection larvae were weighed in order to calculate μmol/g doses. Injections volumes are 1 μL, and were performed with a 30 gauge needle and glass syringe in a hand microapplicator (Burkard, Rickmansworth, Herts, England). The injection site was near the base of one of the hindmost prolegs. Following the injection, larvae are placed in a new enclosure with General Purpose Lepidoptera Diet and their condition (including mortality, sublethal effects, and behavior) is evaluated 24-hours post-injection.

[2] = test system: Adult houseflies (Musca domestica); test: Housefly injection assay with plant-expressed proteins (TSP extract); assay type: in vivo; details: 2 hours post-injection; 0.5 μL TSP extract per fly; impacted = knock-down and dead
Experimental: Full length DVP-insecticidal protein was purified from the tobacco by using a manual extraction technique. Leaf tissue was obtained via 30 mm diameter punch, from the infiltrated area, rolled up and placed inside a 2 mL conical bottom tube with two, 5/32 inch diameter stainless steel grinding balls, and frozen in liquid nitrogen. The samples were then homogenized using a Troemner-Talboys High Throughput Homogenizer. Next, a 750 μL ice-cold total soluble protein (TSP) extraction solution (sodium phosphate solution 50 mM, EDTA 1 mM, pH 7.0) was added into the tube and vortexed. The microtube was then left to incubate at room temperature for 15 minutes, and then centrifuged at 16,000×g for 15 minutes at 4° C. Next, 100 μL of the resulting supernatant was taken and loaded into pre-Sephadex G-50-packed column in 0.45 μm Millipore MultiScreen filter microtiter plate with empty receiving Costar microtiter plate on bottom. The microtiter plates were then centrifuged at 800 g for 2 minutes at 4° C. The resulting filtrate solution (hereinafter “total soluble protein extract” or “TSP extract”) of the tobacco leaves, was ready for downstream analysis.
Houseflies were injected with the TSP extract obtained from the plant extraction process described above. Prior to injection, adult houseflies (Musca domestica) were immobilized with CO2, and selected for injection based on weight (12-20 mg). […] Impacted scores include knock-down and dead.

| Substance | Activity ([1]; Table 9: CEW fourth instar, 10x concentrated supernatants, 1 μL injection, 24 hours) | CEW KD50 ([1]; Table 10: category relative to WT) | % Impacted [2] |
| --- | --- | --- | --- |
| C41K/C51E/D38A/L42V: Mu-diguetoxin-Dc1a variant polypeptide; printed sequences differ at position 41 (D in Table 1, K in Table 9) (AKDGDVEGPAGCKKYDVECDSGECCQKQYLWYKWRPLACRKVKSGFFSSKEVCRDV; C41K/ C51E/ D38A/ L42V DVP) | Yes | Reduced (Reduced=>1.5) | – |
| M3: plant-expressed DVP-insecticidal protein ERSP-UBI-L-DVP-HIS, DVP SEQ ID NO 189 ({ERSP-ubiquitin-linker}-AKDGDVEGPAGCKKYDVECDSGECCQKQYLWHKWRALDCRCLKSGFFSSKCVCRDV-{His tag}; cysteine pairing not given here; reading uncertain) | – | – | 80% |
| M2: plant-expressed DVP-insecticidal protein ERSP-UBI-L-DVP-HIS, DVP SEQ ID NO 188 ({ERSP-ubiquitin-linker}-AKDGDVEGPAGCKKYDVECDSGECCQKQYLWKKWRALDCRCLKSGFFSSKCVCRDV-{His tag}; cysteine pairing not given here; reading uncertain) | – | – | 60% |
| M4: plant-expressed DVP-insecticidal protein ERSP-UBI-L-DVP-HIS, DVP SEQ ID NO 190 ({ERSP-ubiquitin-linker}-AKDGDVEGPAGCKKYDVECDSGECCQKQYLFSKWRPLDCRCLKSGFFSSKCVCRDV-{His tag}; cysteine pairing not given here; reading uncertain) | – | – | 100% |
| M1: plant-expressed DVP-insecticidal protein ERSP-UBI-L-DVP-HIS, DVP SEQ ID NO 187 ({ERSP-ubiquitin-linker}-AKDGDVEGPAGCKKYDVECDSGECCQKQYLWSKWRALDCRCLKSGFFSSKCVCRDV-{His tag}; cysteine pairing not given here; reading uncertain) | – | – | 60% |
